Test systems include NCI-H522 lung; OVCAR-4 ovarian; IGROV1 ovarian; A498 renal; UACC-257 melanoma; SW-620 colon; SF-295 CNS; RXF 393 renal; MDA-MB-435; OVCAR-5 ovarian.
What all share (assay): inhibition of tumour cell growth, NCI panel, 48 h

Results on six compounds are retold here after PubChem BioAssay (NCI).

Where “and” joins values, the source holds several entries; their conditions need not be identical. Equal values may be shown once.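 Each compound was tested at five concentrations against cells in 96-well plates for 48 hours. Abbreviation: GI50, concentration required for 50% inhibition of growth. TGI: concentration producing complete growth inhibition.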

On to `COC(=O)Nc1nc2ccc(Oc3cccc(NC(=O)Nc4cc(C(F)(F)F)ccc4F)c3)cc2[nH]1`, for which the GI50 is 5.73 µM in the assay on NCI-H522 lung; 17.6 µM in the assay with OVCAR-4 ovarian; 12.1 µM in the assay on IGROV1 ovarian; 9.46 µM with A498 renal; over 23.7 µM in the assay on UACC-257 melanoma; 10.3 µM in the assay on SW-620 colon. Moreover, the GI50 in the assay with SF-295 CNS is 14.6 µM; in the assay on RXF 393 renal, 10.4 µM; in the assay with MDA-MB-435, 5.78 µM; with OVCAR-5 ovarian, over 22.5 µM. Also, the TGI is 20.6 µM with NCI-H522 lung; over 25 µM in the assay on OVCAR-4 ovarian; over 25 µM with IGROV1 ovarian; over 25 µM in the assay on A498 renal; over 25 µM in the assay with UACC-257 melanoma; over 25 µM with SW-620 colon. In addition, the TGI is over 25 µM with SF-295 CNS, over 25 µM in the assay with RXF 393 renal, 18.8 µM in the assay on MDA-MB-435 and over 25 µM with OVCAR-5 ovarian.

Consider `COc1ccc(Cl)c(Nc2nc3ccccc3nc2NS(=O)(=O)c2cccc(NC(=O)C(C)(C)N)c2)c1`, for which the GI50 was 14.7 µM and > 10 µM in the assay with NCI-H522 lung; 14.8 µM and > 10 µM in the assay on OVCAR-4 ovarian; 1.41 µM and 0.686 µM in the assay with IGROV1 ovarian; 3.1 µM and 3.23 µM in the assay on A498 renal; 12.1 µM and > 10 µM with UACC-257 melanoma; 11.6 µM and > 10 µM in the assay with SW-620 colon. The GI50 is 4.7 µM and 2.56 µM with SF-295 CNS; 1.89 µM and 2.62 µM in the assay with RXF 393 renal; 11.5 µM and > 10 µM with MDA-MB-435; 4.76 µM and > 10 µM in the assay on OVCAR-5 ovarian. In addition, the TGI is 30.5 µM and > 10 µM in the assay with NCI-H522 lung; 28.3 µM and > 10 µM in the assay with OVCAR-4 ovarian; 6.63 µM and 4.86 µM in the assay with IGROV1 ovarian; 13.6 µM and > 10 µM in the assay with A498 renal; 25.1 µM and > 10 µM with UACC-257 melanoma; 26.2 µM and > 10 µM in the assay on SW-620 colon. For the same compound, the TGI is 18.8 µM and > 10 µM in the assay with SF-295 CNS; 9.03 µM and > 10 µM with RXF 393 renal; 25.2 µM and > 10 µM in the assay on MDA-MB-435; 22.5 µM and > 10 µM with OVCAR-5 ovarian.

Regarding `COc1cc(/C=C/C(=O)c2ccc(F)cc2)ccc1OCCCN1CCN(CC(=O)Nc2ccc(Cl)cc2C(=O)c2ccccc2Cl)CC1`, the GI50 is 14.4 µM in the assay with NCI-H522 lung; 9.48 µM with OVCAR-4 ovarian; 6.17 µM with IGROV1 ovarian; 29.4 µM with A498 renal; 9.51 µM with UACC-257 melanoma; 2.73 µM in the assay on SW-620 colon. Moreover, the GI50 is 5.57 µM in the assay with SF-295 CNS, 2.84 µM in the assay on RXF 393 renal, 8.19 µM in the assay with MDA-MB-435 and 13.4 µM in the assay on OVCAR-5 ovarian. Moreover, the TGI in the assay with NCI-H522 lung was 33.7 µM; in the assay on OVCAR-4 ovarian it was 34.5 µM; in the assay with IGROV1 ovarian it was 41.6 µM; with A498 renal, over 100 µM; in the assay on UACC-257 melanoma, 47.9 µM; in the assay with SW-620 colon, 10.7 µM. Moreover, the TGI in the assay on SF-295 CNS was 19 µM; in the assay on RXF 393 renal it was 15.8 µM; in the assay with MDA-MB-435, 22.5 µM; with OVCAR-5 ovarian, over 100 µM.

Take `O=c1c(O)c(-c2ccc(O)c(O)c2)oc2cc(O)cc(O)c12`: the GI50 was 5.54 µM with NCI-H522 lung; 33.3 µM with OVCAR-4 ovarian; 11.5 µM with IGROV1 ovarian; 7.11 µM in the assay with A498 renal; 37.4 µM in the assay on UACC-257 melanoma; 26.7 µM with SW-620 colon. Besides, the GI50 in the assay with SF-295 CNS is 23.1 µM; in the assay on RXF 393 renal, 11.7 µM; with MDA-MB-435, 5.08 µM; with OVCAR-5 ovarian, 30.2 µM. For the same compound, the TGI in the assay on NCI-H522 lung was over 100 µM; in the assay with OVCAR-4 ovarian it was over 100 µM; in the assay on IGROV1 ovarian, over 100 µM; with A498 renal, 24.2 µM and > 100 µM; in the assay on UACC-257 melanoma, over 100 µM; with SW-620 colon it was > 100 µM and 59.8 µM. Besides, the TGI was over 100 µM in the assay with SF-295 CNS; 50.9 µM and > 100 µM in the assay on RXF 393 renal; over 100 µM with MDA-MB-435; over 100 µM with OVCAR-5 ovarian.

For `COC(=N)c1c(N)[n+]([O-])c2ccc(F)cc2[n+]1[O-]`, the GI50 is 54.7 µM in the assay on NCI-H522 lung; over 100 µM with OVCAR-4 ovarian; 18.1 µM in the assay on IGROV1 ovarian; 40.4 µM in the assay on A498 renal; over 100 µM in the assay on UACC-257 melanoma; over 100 µM with SW-620 colon. For the same compound, the GI50 in the assay on SF-295 CNS, in the assay on RXF 393 renal, with MDA-MB-435 and with OVCAR-5 ovarian was over 100 µM in each case. Further, the TGI was over 100 µM in the assay with NCI-H522 lung; over 100 µM in the assay with OVCAR-4 ovarian; 86.5 µM in the assay with IGROV1 ovarian; over 100 µM in the assay on A498 renal; over 100 µM with UACC-257 melanoma; over 100 µM with SW-620 colon. Further, the TGI in the assay on SF-295 CNS, with RXF 393 renal, with MDA-MB-435 and in the assay on OVCAR-5 ovarian was over 100 µM throughout.

Take `CN1CCc2[nH]nc(-c3n[nH]c4c3CN(C)CC4)c2C1`: the TGI in the assay with NCI-H522 lung, in the assay on OVCAR-4 ovarian, with IGROV1 ovarian, in the assay with A498 renal, in the assay with UACC-257 melanoma and with SW-620 colon was over 100 µM each time. Moreover, the TGI in the assay with SF-295 CNS, in the assay with RXF 393 renal, in the assay with MDA-MB-435 and with OVCAR-5 ovarian was over 100 µM in each case.
